Test systems include NCI/ADR-RES ovarian; DMS 114 small cell lung; DMS 273 small cell lung; HOP-18 NSCLC; KM20L2 colon; XF 498 CNS; MDA-N; LXFL 529 NSCLC.
What all share (experiment): NCI anticancer screen, dose series, 48 h

Values joined by “and” are separate entries in the source; they are usually repeats but may differ in a detail not shown here. Identical values can stand only once.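 Compound exposure: 48 hours, 5 concentrations, 96-well plates. GI50 marks 50% less growth. TGI is the concentration that stops growth completely.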 Where only a bound is given, the exact number is not on record here.

Regarding `CC(C)C[C@H](NC(=O)[C@H](Cc1ccccc1)n1ccc(N2CCCCC2)cc1=O)B(O)O`, in the assay on NCI/ADR-RES ovarian, the GI50 was 17.4 µM and the TGI is above 100 µM.
For `COc1nc2c(OC)cccc2c(OC)c1C=O`, the TGI with DMS 114 small cell lung, in the assay on DMS 273 small cell lung, in the assay with HOP-18 NSCLC, in the assay on KM20L2 colon and with XF 498 CNS was above 100 µM throughout.
For `Cn1ccnc1C(=O)/C=C/c1ccc(CC(=O)Nc2ccc(Cl)cc2)cc1`, in the assay on NCI/ADR-RES ovarian, the GI50 was 2.22 µM and the TGI is above 25 µM.
Consider `CN1CCN(Cc2ccc(-c3cc4ncnc(Nc5ccc(OCc6cccc(F)c6)c(Cl)c5)c4s3)o2)CC1`, for which, in the assay with NCI/ADR-RES ovarian, the GI50 was 4.32 µM and the TGI was determined as 9.32 µM.
Regarding `O=C1c2ccccc2-c2c1c1ccccc1c(=O)n2CCCNCCCn1c2c(c3ccccc3c1=O)C(=O)c1ccccc1-2`, in the assay on NCI/ADR-RES ovarian, the GI50 was 3.94 µM and the TGI is 17.3 µM.
In the case of `O=C1OC(c2ccco2)=N/C1=C\c1ccc(Cl)c(Cl)c1`, the TGI in the assay on MDA-N was above 100 µM.
With `Cc1ccc(C)c(NC(=O)C(=O)C(c2cnc3ccc([N+](=O)[O-])cc3n2)[N+](=O)[O-])c1` (stereo not drawn), the TGI with MDA-N was above 100 µM; in the assay on NCI/ADR-RES ovarian, 63.8 µM.
`CN(C)/[N+]([O-])=N/Oc1cc(Nc2cccc(C(=O)O)c2)c([N+](=O)[O-])cc1[N+](=O)[O-]`: in the assay with NCI/ADR-RES ovarian, the GI50 is above 100 µM and the TGI was above 100 µM.
On to `CN/N=C(/Cc1occc(=O)c1O)C(=O)Nc1ccc(C)c(C)c1`, for which the TGI in the assay with DMS 114 small cell lung, in the assay on KM20L2 colon and in the assay with LXFL 529 NSCLC was above 100 µM each time.
`COc1ccc(CN2C(=O)/C(=C\c3cc(OC)c(OC)c(OC)c3)c3cc(OC)ccc32)cc1`: in the assay on NCI/ADR-RES ovarian, the GI50 was 2.69 µM and the TGI amounted to 9.11 µM.
On to `COc1ccc(C(=O)/C=C/c2ccc(O)c(O)c2F)c(OC)c1`, for which the figures for the GI50 with MDA-N and with NCI/ADR-RES ovarian were 2.38 µM and 4.16 µM, respectively. Moreover, the TGI in the assay with MDA-N is 27.2 µM and 25.8 µM; in the assay with NCI/ADR-RES ovarian, 67.7 µM and > 100 µM.
Regarding `CCC1=C(C)/C(=C/c2[nH]c(C)c(C(=O)CCCCC(=O)OC)c2C)N=C1c1ccc[nH]1`, in the assay with NCI/ADR-RES ovarian, the GI50 was 33.2 µM and the TGI is above 96.4 µM.
As to `O=C1C2C(C(=O)N1O)N(Cc1ccccc1)C(=O)N2Cc1ccccc1` (stereo not drawn), the TGI in the assay with DMS 114 small cell lung, in the assay on KM20L2 colon, in the assay on LXFL 529 NSCLC and with XF 498 CNS was above 100 µM throughout.
For `CC(C)(C)[OH+][O-].[O-]c1ccc(Cl)cc1C=Nc1ccc(Cl)cc1[O-].[O]=[V]`, the figures for the GI50 in the assay on MDA-N and with NCI/ADR-RES ovarian were 7.92 µM and 29.1 µM, respectively. In addition, the TGI with MDA-N and in the assay on NCI/ADR-RES ovarian was above 100 µM throughout.
For the compound `O=C(/C=C/c1ccco1)c1ccc(Nc2nc(Nc3ccc(F)cc3)nc(Nc3ccc(Cl)cc3)n2)cc1`, in the assay on NCI/ADR-RES ovarian, the GI50 was 26.1 µM and the TGI was above 100 µM.
Turning to `Cc1ccc(C)c(NC(=O)C(=O)C2C(=O)C3=C(CC2(C)C)Nc2ccccc2S3)c1` (stereo not drawn), the TGI in the assay on MDA-N and in the assay on NCI/ADR-RES ovarian was above 100 µM in each case.
As for `O=C1c2ccccc2-c2c1c1ccccc1c(=O)n2Cc1ccco1`, the TGI with MDA-N and with NCI/ADR-RES ovarian was above 100 µM each time.
`Oc1cccc2c1NC1=C(CCC/C1=C\c1ccccc1)C2`: the TGI in the assay on DMS 114 small cell lung, in the assay with DMS 273 small cell lung, in the assay on KM20L2 colon, in the assay with LXFL 529 NSCLC and in the assay on XF 498 CNS was above 100 µM in each case.
In the case of `CCOC(=N)CC(=O)Nc1ccc(Cl)cc1`, the TGI with DMS 273 small cell lung, with KM20L2 colon, with LXFL 529 NSCLC and in the assay with XF 498 CNS was above 100 µM throughout.
As to `O=S(=O)([O-])[O-].[OH3+].[OH3+].[OH3+].[Ru+2].c1ccccc1`, the GI50 with DMS 114 small cell lung, with DMS 273 small cell lung, with HOP-18 NSCLC, with LXFL 529 NSCLC and in the assay with XF 498 CNS was above 100 µM each time. Moreover, the TGI in the assay on DMS 114 small cell lung, with DMS 273 small cell lung, in the assay on HOP-18 NSCLC, in the assay with LXFL 529 NSCLC and in the assay with XF 498 CNS was above 100 µM in each case.
For the compound `CC(Cn1c2c3ccccc3ccc2c2oc(=O)c3ccccc3c21)N(C)C` (stereo not drawn), the TGI in the assay with DMS 114 small cell lung, with KM20L2 colon, in the assay on LXFL 529 NSCLC and with XF 498 CNS was above 100 µM in each case.
As to `O=C1C=CC(=O)c2c1ccc1c3ccccc3n(-c3ccccn3)c21`, the TGI with DMS 114 small cell lung is 40.2 µM; with DMS 273 small cell lung, above 100 µM; with HOP-18 NSCLC, 29.1 µM; in the assay with LXFL 529 NSCLC it was 28.5 µM; with XF 498 CNS it was 29.3 µM.
Take `O=[N+]([O-])c1ccc(N2CCN(Cc3ccccc3)CC2)c2c1no[n+]2[O-]`: in the assay on NCI/ADR-RES ovarian, the GI50 is 2.27 µM and the TGI is 12.3 µM.
For `COc1ccc(-c2ccc(C3CC(c4ccc(O)cc4)=NN3)o2)c([N+](=O)[O-])c1` (stereo not drawn) the same measures were 38.5 µM and above 100 µM.
For `O=[N+]([O-])c1cnc(Sc2ccncn2)c([N+](=O)[O-])c1`, in the assay with NCI/ADR-RES ovarian, the GI50 is 16.6 µM and the TGI turned out to be 33.7 µM.
Consider `CCCc1c2c([nH]c(=O)c1C)C(=O)c1[nH]c(=O)c(C)c(CCC)c1C2=O`, for which the TGI is 16.4 µM in the assay on DMS 114 small cell lung, above 100 µM in the assay on HOP-18 NSCLC and above 100 µM with LXFL 529 NSCLC.
Consider `O=C(Nc1ccc(-c2nc3cc4ccccc4cc3[nH]2)cc1)c1cccc(Br)c1`, for which, in the assay on NCI/ADR-RES ovarian, the GI50 was 15.3 µM and the TGI is 58.6 µM.
Regarding `COc1ccc2[nH]cc(CCNC(C)=O)c2c1`, the TGI with DMS 114 small cell lung, in the assay on DMS 273 small cell lung, in the assay with HOP-18 NSCLC, in the assay with KM20L2 colon, in the assay on LXFL 529 NSCLC and in the assay on XF 498 CNS was above 100 µM each time.

Values taken from PubChem BioAssay (NCI).
